The text below walks through data of patent US20260076935A1, “PREVENTION AND TREATMENT OF CONDITIONS USING ETHYL PYRUVATE” (The Trustees of Columbia University in the City of New York, priority 2023, published 2026).

For data set [1] the following is noted: prior clinical studies; cited from earlier work.
For data set [2], the system named is age-onset mouse glaucoma models. Briefly: IOP in age-onset mouse glaucoma models. It counts as in vivo. The procedure:
In some embodiments, one or more of these factors may lead to glaucoma. In some embodiments, the mouse model is a Lmx1b mouse model. This is unexpected at least because sodium pyruvate had no effect on IOP in age-onset mouse glaucoma models, or in the early-onset Lmx1b developmental glaucoma model. For example, treatment of Lmx1b mice with about 500 mg/kg/day of sodium pyruvate had no effect on IOP at 2, 3, and 4-months post-treatment. This is also unexpected at least because calcium pyruvate had no effect on IOP in humans in prior clinical studies.

The subject of data set [3] is early onset Lmx1b developmental glaucoma model. Description: Ocular developmental abnormalities (iridocorneal adhesions, anterior chamber depth) in Lmx1b glaucoma mice. The class given is in vivo. An excerpt: As shown in FIGS. 4-6, in addition to preventing or treating high IOP, treatment of mice harboring an early onset Lmx1b developmental glaucoma model with ethyl pyruvate, alone or in combination with a metabolite boosting agent, unexpectedly rescued ocular developmental abnormalities. […] Ethyl pyruvate's ability to treat or prevent IOP elevation ocular developmental abnormalities was surprising at least because such effects have not been observed with sodium pyruvate treatments.

Data set [4] relates to early-onset Lmx1b developmental glaucoma model. Description: Intraocular pressure (IOP) in mice with early-onset Lmx1b developmental glaucoma model. It counts as in vivo. An excerpt: Ethyl pyruvate's ability to treat or prevent IOP elevation ocular developmental abnormalities was surprising at least because such effects have not been observed with sodium pyruvate treatments.

Data set [5] has as its system early onset Lmx1b developmental glaucoma model. Description: Glaucomatous optic nerve damage (neurodegeneration) in Lmx1b glaucoma mice. The class given is in vivo. Conditions: FIG. 8.
For data set [6] the following is noted: multiple mammalian species, including humans, mice, rats, and horses; cited from earlier work.
A short description of data set [7]: Long-term dosing of mice, adverse effects. Conditions: mice dosed for at least up to nine months. It counts as in vivo. On the procedure: Ethyl pyruvate was sourced from Sigma-Aldrich. […] See, e.g., Clinical Trial Identifier NCT00107666 (human cardiac trial, dosing ethyl pyruvate at 7.5 g (90 mg/kg) intravenously, every six hours for two days); Xiujing Sun et al., Ethyl Pyruvate Supplemented in Drinking Water Ameliorates Experimental Nonalcoholic Steatohepatitis, 137 Biomedical Pharmacotherapy 111392 (2021); Leilei Mao et al., Ethyl Pyruvate Improves White Matter Remodeling in Rats After Traumatic Brain Injury, 27 CNS Neuroscience & Therapeutics 113 (2021); C. C. Jacobs et al, Ethyl Pyruvate Diminishes the Inflammatory Response to Lipopolysaccharide Infusion in Horses, 45 Equine Veterinary J. 333 (2013). […] Furthermore, ethyl pyruvate is an FDA-approved food additive and flavoring agent.

[8] abbreviates: about 500 mg/kg/day, 2, 3, and 4-months post-treatment, Lmx1b mice.

Take calcium pyruvate: the IOP in humans entry in data set [1] is listed as “no effect”.

Turning to `CC(=O)C(=O)[O-].[Na+]` [sodium pyruvate], the IOP entry in data set [2] and in data set [4] (setting [8]) was “no effect” in each case. The figures for the “severity of anterior eye developmental abnormalities” value in data set [3] (setting [8]) and in data set [3] (sodium pyruvate 500 mg/kg/day) were “no effect” and “no change”, respectively. Besides, the IOP elevation entry in data set [4] (sodium pyruvate 500 mg/kg/day, after two months, FIG. 7) is “no effect”. In addition, the “IOP compared to untreated” value in data set [4] (sodium pyruvate 500 mg/kg/day, at three and four months) is on record as “no changes were observed”.

In the case of `NC(=O)c1cccnc1` [nicotinamide], the “glaucomatous optic nerve damage” value in data set [5] (nicotinamide 550 mg/kg/day) was “protective from glaucomatous optic nerve damage”.

With `CCOC(=O)C(C)=O` [ethyl pyruvate], the anterior chamber deepening result in data set [3] (FIGS. 5-6) is recorded as “significant effect in preventing or reducing anterior chamber deepening”. The “incidence and severity of iridocorneal adhesions” value in data set [3] (ethyl pyruvate 2000 mg/kg/day, FIG. 4) was “less incidence and severity”. Also, the safety and tolerability result in data set [6] was “safe and well-tolerated”. The “glaucomatous optic nerve damage (neurodegeneration)” value in data set [5] (ethyl pyruvate 2000 mg/kg/day, mice aged to six months) is given as “lessening of glaucomatous optic nerve damage”. Further, the IOP entry in data set [4] (ethyl pyruvate 500 mg/kg/day, out to two months of age, FIG. 1) is given as “lessening of IOP”; in data set [4] (ethyl pyruvate 2000 mg/kg/day, FIG. 2) it was “lessening of IOP”. The adverse effects entry in data set [7] is given as “without adverse effects”.
